Where two headings read alike, the source gives them in different places. A value given as a limit tells only on which side of the number the result lay.

One data set concerns the target T1, Aβ 1-42 (Homo sapiens, UniProt P05067).
T1 construct: The reaction solutions contained Aβ 1-42 at concentrations
The data set is described as follows: Fluorometric H2O2 assay (inhibition of Abeta H2O2 production). Conditions: concentration required to inhibit 50% of Abeta H2O2 production; read-out: H2O2 IC50. Type of data set: biochemical. Summed up:
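Copper-dependent Aβ H2O2 production measured fluorometrically with deacetylated dichlorofluorescein plus HRP in PBS, pH 7.4. Incubation 60 min at 37 C, test compound included in wells. H2O2 quantified against H2O2 standards.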

The subject of data set [1] is primary cortical neuronal cultured cells. Briefly: Test compound cytotoxicity, MTS assay, primary cortical neuronal cultures. Type of data set: cell-based, mouse. Conditions: for Cytotox (% viable) Neuronal cells at 1 μM: 1 μM test compound; for Cytotox (% viable) Neuronal cells at 10 μM: 10 μM test compound. The procedure, abridged:
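Primary cortical neurons were cultured five days in Neurobasal/B27, then exposed on day six to compounds (from 2.5 mM DMSO stocks) in medium minus antioxidants, in triplicate for 4 days at 37° C. Viability was measured by MTS, 2 h at 37° C, absorbance at 560 nm.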
On the technique in general: Formazan colour is commonly taken as a measure of viable cells.

In data set [2] the test system is Abeta in extract of post-mortem human AD brain tissue. Briefly: BAS: human brain amyloid solubilization assay. Type of data set: biochemical. Conditions: max effect across the concentration range, referenced to baseline PBS. Summed up: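 Plaque-bearing post-mortem AD cortex homogenised in ice-cold PBS pH 7.4; soluble Aβ in 100,000×g supernatant, insoluble Aβ from resuspended pellet. Fractions run on Tris-Tricine SDS-PAGE, immunoblotted with W02, densitometry against synthetic Aβ40 standards.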

Data set [3] has as its target T2, Abeta:Zn (25:50 μM) Synthetic Aggregations (Homo sapiens, UniProt P05067).
T2 construct: PB Compound Mediated Dissolution of Aggregated Abeta 1-42; purchased Keck Laboratory, Yale University School of Medicine
Briefly: Disaggregation of Abeta:Zn synthetic aggregates (ThT fluorescence). The data set is classed as biochemical. Conditions: for Disaggregation % Aggregate reduction at 5 μM: 5 μM test compound; for EC50: Abeta:Zn 25:50 μM aggregates. Summed up:
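Abeta1-42 (25 μM) with ZnCl2 (50 μM) and ThT (50 μM) in PBS pH 6.6 was preaggregated 24 h at 37 degrees with rotation. Aggregates were then exposed to compound (final 1-50 μM, DMSO) for 2 h at 37 degrees. ThT fluorescence was read at ex 450/em 480 nm.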

The nature of data set [4]: E Log D, chromatographic method. Type of data set: physicochemical. Conditions: pH 7.4. The procedure:
Effective Log D values were measured using a chromatographic method employing a SUPELCOSIL LC-ABZ column using an octanol saturated mobile phase at pH 7.4.

Data set [5] is described as follows: Mice plasma concentration after oral dose. Type of data set: in vivo. Conditions: 30 min to 4 h after single or repeat oral dose of 30 mg/kg.
In a further data set the test system is Aβ deposits. The following applies: daily oral gavage 30 mg/kg, 9 weeks, 13-14 months old transgenic mice.
Data set [6] has as its system M17 human neuroblastoma cells. The data set is described as follows: Cytotoxicity, M17 human neuroblastoma cells. Conditions: for Cytotox (% viable) M17 cells at 1 μM: 1 μM test compound; for Cytotox (% viable) M17 cells at 10 μM: 10 μM test compound. Type of data set: cell-based. The procedure: Assay 3. MTS Assay for Cell Viability
Cell viability is determined using the MTS assay. Culture medium is replaced with fresh neurobasal medium plus B27 supplements minus antioxidants. 1/10th volume MTS solution (Cell Titre 96 Aqueous One, Promega Corporation) and incubated at 37° C., 2 hrs. 200 microliter aliquots are measured with a spectrophotometer at 560 nm.

For data set [7] the following is noted: mouse, in vivo, 10 days.
For data set [8], the system named is dityrosine oligomerization. The data set is described as follows: CuTy: inhibition of dityrosine oligomerization. Conditions: referenced to in-house standard (set as 100% inhibition). The data set is classed as biochemical.
Data set [9] can be described thus: Toxicity, visual observations in mice. The following applies: 30 mg/kg; duration and visual observations.
The test system of data set [10] is metal ions in retinal drusen. Briefly: Post mortem retina screening, ZP1 zinc labeling of Bruch membrane. The following applies: 15 hours incubation; TPEN 100 μM, PB-1033 100 and 250 μM; 10 μM ZP1. How it is done:
Post Mortem Screening The BAS assay is adopted for post mortem retina. Using a trephine, 6 mm diameter regions of peripheral retina from frozen donor eyes are dissected. Following defrosting, the neuronal retina and the RPE cells are removed by gentle agitation in PBS buffer. Following removal of the RPE cells, strips of the Bruch membrane are cut from the eye. 4 samples are prepared: 1) Control […] Samples are then washed 3 times and the labeling visualized using a fluorescence and confocal microscope. A repeat of this procedure is performed with the exception that samples are incubated for a period of 15 hours before washing to determine differential metal binding over this longer period. The test results are in the form of fluorescence imaging from a confocal microscope of the 4 samples tested in this Example after 15 hours of sample incubation. […] Fluorescence microscopic photographs (which are in colour) are available upon request from the […].

T2 sequence (P05067 672-713 limits assumed): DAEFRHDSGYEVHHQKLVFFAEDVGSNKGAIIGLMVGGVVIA
T1 sequence (P05067 672-713 limits assumed): as above

The IC50 is the concentration that inhibits the measured activity by half. Usually EC50 stands for the concentration needed to bring the measured effect to its halfway point. The low end stands for a more potent agent, the high end for a less potent agent. As to `O=C(NCCc1c[nH]cn1)c1ccc2c(Cl)cc(Cl)c(O)c2n1` [PB 1038], the IC50 at Aβ 1-42 turned out to be 260 nM. In [1], the “Cytotox (% viable) Neuronal cells at 1 μM” value came to 91% and the “Cytotox (% viable) Neuronal cells at 10 μM” value is on record as 84%. Also, the BAS max effect in data set [2] came out at 627%. Besides, in data set [3], the “Disaggregation % Aggregate reduction at 5 μM” value was determined as 51.3% and the response was half-maximal at 4850 nM (EC50). In data set [4], the “ElogD (E)” value is on record as 2.92. Moreover, the Mice plasma concentration result in data set [5] was “Up to 2694 ng/ mL ng/mL”. Further, in the data set on Aβ deposits, the “Tg Mice % difference from control in Amyloid plaque abundance” value is on record as “Decrease”, the “Tg Mice % difference from control in insoluble brain amyloid burden” value is reported as “Decrease” and the “Tg Mice % difference from control in soluble brain amyloid burden” value was “Increase”.

For the compound `CCn1cnc2c(O)c(I)cc(Cl)c2c1=O` [PB 1138], on Aβ 1-42, the IC50 was determined as 300 nM. In data set [6], the “Cytotox (% viable) M17 cells at 1 μM” value worked out at 99.7% and the “Cytotox (% viable) M17 cells at 10 μM” value was determined as 68.2%. Also, in data set [3], the “Disaggregation % Aggregate reduction at 5 μM” value was found to be 53% and a half-maximal effect (EC50) was put at 4700 nM. In addition, the Mice plasma concentration result in data set [5] was “Up to 1802 ng/ mL ng/mL”. The “Toxicity at 30 mg/kg” value in data set [7] is on record as 10 days, 2/4 deaths.

In the case of `CC(C)c1cnc2c(O)c(I)ccn2c1=O` [PB 1142], on Aβ 1-42, the IC50 came out at 370 nM. In data set [6], the “Cytotox (% viable) M17 cells at 1 μM” value was determined as 96.7% and the “Cytotox (% viable) M17 cells at 10 μM” value came out at 44.2%. Moreover, in [3], the “Disaggregation % Aggregate reduction at 5 μM” value is on record as 42% and a half-maximal effect (EC50) was put at 7100 nM. In addition, the “Toxicity at 30 mg/kg” value in [7] was 10 days, 1/4 death.

Turning to `CCCCc1cnc2c(O)c(I)ccn2c1=O` [PB 1145], the IC50 on Aβ 1-42 was determined as 660 nM. In data set [6], the “Cytotox (% viable) M17 cells at 1 μM” value is on record as 101.7% and the “Cytotox (% viable) M17 cells at 10 μM” value stood at 58.7%. Moreover, in data set [3], the “Disaggregation % Aggregate reduction at 5 μM” value is 28% and the response was half-maximal at 7200 nM (EC50). Further, the “Toxicity at 30 mg/kg” value in data set [7] is listed as 10 days, 2/4 death.

Take `CCCCc1cnc2c(O)cccn2c1=S` [PB 1148]: the IC50 at Aβ 1-42 was determined as 410 nM. In data set [3], the “Disaggregation % Aggregate reduction at 5 μM” value came to 70% and the EC50 is 1550 nM. Also, the Mice plasma concentration entry in data set [5] is given as “Up to 57 ng/ml ng/mL”. For the same compound, the “Toxicity at 30 mg/kg” value in data set [7] is 7 days, 2/4 deaths.

As to `CCCc1cnc2c(O)cccn2c1=O` [PB 1149], on Aβ 1-42, the IC50 worked out at 300 nM. Moreover, in data set [1], the “Cytotox (% viable) Neuronal cells at 1 μM” value is given as 86.2% and the “Cytotox (% viable) Neuronal cells at 10 μM” value is 12.4%. Also, in data set [6], the “Cytotox (% viable) M17 cells at 1 μM” value worked out at 79.1% and the “Cytotox (% viable) M17 cells at 10 μM” value stood at 45.2%. Besides, the “CuTy % inhibition of dityrosine oligomerization” value (from here on “CuTy % inhibition”) in [8] is given as “CuTy: 95% inhibition”. Further, in data set [3], the “Disaggregation % Aggregate reduction at 5 μM” value came out at 49% and a half-maximal effect (EC50) was put at 5000 nM. Besides, the Mice plasma concentration entry in data set [5] is given as “Up to 690 ng/ml ng/mL”. In the data set on Aβ deposits, the “Tg Mice % difference from control in Amyloid plaque abundance” value was −45%, the “Tg Mice % difference from control in insoluble brain amyloid burden” value is reported as “No change” and the “Tg Mice % difference from control in soluble brain amyloid burden” value is “No change”. Moreover, the “Toxicity at 30 mg/kg” value in data set [9] is 10 days, none.

As for `CC(C)n1cnc2c(O)c(I)ccc2c1=O` [PB 1153], the IC50 on Aβ 1-42 came out at 320 nM. Besides, in data set [3], the “Disaggregation % Aggregate reduction at 5 μM” value is on record as 53% and the EC50 is 4700 nM. In data set [5], the Mice plasma concentration result was “Up to 277 ng/ml ng/mL”. Moreover, the “Toxicity at 30 mg/kg” value in data set [7] was 10 days, 1/4 deaths.

In the case of `O=c1c2ccc(I)c(O)c2ncn1-c1ccc(F)cc1F` [PB 1157], the IC50 on Aβ 1-42 stood at 380 nM. For the same compound, in data set [6], the “Cytotox (% viable) M17 cells at 1 μM” value amounted to 90.3% and the “Cytotox (% viable) M17 cells at 10 μM” value stood at 80.3%. In data set [3], the “Disaggregation % Aggregate reduction at 5 μM” value came out at 45% and a half-maximal effect (EC50) was put at 8100 nM. Further, the “Toxicity at 30 mg/kg” value in [7] was 6 days, 2/4 deaths.

`O=C(NCc1ccc(F)cc1)c1cnc2c(O)c(I)ccn2c1=O` [PB 1158]: on Aβ 1-42, the half-maximal inhibitory concentration (IC50) amounted to 990 nM. For the same compound, in [6], the “Cytotox (% viable) M17 cells at 1 μM” value is given as 104.7% and the “Cytotox (% viable) M17 cells at 10 μM” value was 56%. For the same compound, in data set [3], the “Disaggregation % Aggregate reduction at 5 μM” value is 10% and the EC50 is more than 20000 nM. For the same compound, the “Toxicity at 30 mg/kg” value in data set [7] is recorded as 7 days, 4/4 deaths.

On to `CCCCNC(=O)c1cnc2c(O)c(I)ccn2c1=O` [PB 1160], for which, at Aβ 1-42, the IC50 came out at 750 nM. For the same compound, in [6], the “Cytotox (% viable) M17 cells at 1 μM” value came out at 85.3% and the “Cytotox (% viable) M17 cells at 10 μM” value amounted to 63.4%. In addition, in [8], the “CuTy % inhibition” value is listed as “CuTy: 95% inhibition”. In data set [3], the “Disaggregation % Aggregate reduction at 5 μM” value is 56.8% and the EC50 amounted to 4050 nM. For the same compound, in data set [5], the Mice plasma concentration result was “Up to 27,598 ng/mL”. Further, in the data set on Aβ deposits, the “Tg Mice % difference from control in Amyloid plaque abundance” value is given as “decrease”, the “Tg Mice % difference from control in insoluble brain amyloid burden” value was “No change” and the “Tg Mice % difference from control in soluble brain amyloid burden” value was −25%. Besides, the “Toxicity at 30 mg/kg” value in [9] was 10 days, none.

Consider `CCn1cnc2c(O)c(I)ccc2c1=S` [PB 1168], for which the concentration for half-maximal inhibition (IC50) on Aβ 1-42 came out at 400 nM. Further, in data set [6], the “Cytotox (% viable) M17 cells at 1 μM” value was 85.7% and the “Cytotox (% viable) M17 cells at 10 μM” value stood at 43%. For the same compound, in data set [3], the “Disaggregation % Aggregate reduction at 5 μM” value came to 70% and the EC50 amounted to 1110 nM. Further, the Mice plasma concentration entry in data set [5] is “Up to 400 ng/ ml ng/mL”. Further, the “Toxicity at 30 mg/kg” value in data set [7] is 10 days, none, 1/4 mild signs.

Regarding `Nc1cc(Cn2cnc3c(O)c(Cl)cc(Cl)c3c2=O)ccn1` [PB 1250], the IC50 on Aβ 1-42 was determined as 480 nM. Also, in data set [6], the “Cytotox (% viable) M17 cells at 1 μM” value was determined as 114.8% and the “Cytotox (% viable) M17 cells at 10 μM” value turned out to be 100.7%. Moreover, the “CuTy % inhibition” value in data set [8] is “CuTy: 80% inhibition”. The “Toxicity at 30 mg/kg” value in data set [7] was 10 days, 1/4 deaths.

With `c1ccc(CN(CCN(Cc2ccccn2)Cc2ccccn2)Cc2ccccn2)nc1` [TPEN, reference compound], the “ZP1 (zinc sensor) labeling of post mortem Bruch membrane” value in [10] is on record as “inhibited ZP1 labeling”.

(Values after patent US9163018B2, “Method of treatment of age-related macular degeneration (AMD)” (Prana Biotechnology Limited, priority 2006, dated 2015).)
